According to EP0221032A2, “Sodium salt of etodolic acid and process for its preparation” (priority 1985, dated 1987):
Counter-ions that a name gives are not always drawn. Like-named read-outs stand apart in the source and are kept apart here.

Key:
[1] = Water solubility of etodolic acid and its salts; type: physicochemical; conditions: for solubility: water
Description: Etodolic acid was taken into consideration as a typical representative, particularly appreciated from the pharmacological point of view, of said derivatives and some typical salts thereof were prepared.
(§1) In order to avail oneself of a derivative usable in therapy, it is necessary, in fact, to obtain a highly soluble substance, also considering the doses of etodolic acid which have to be administered for getting an efficient therapeutic action (at least 200 mg twice a day in the adult).

[2] = Colour and stability of aqueous solutions of the salts (quickened ageing tests); type: physicochemical; conditions: for colour of the solutions: aqueous solutions
Description: as §1

[3] = background statement on the free acid; cited from earlier work
[4] = pH of aqueous solutions of the sodium salt; type: physicochemical
Text: The 20% solution has a pH of 8.7, while a 7.3% solution has a pH of 7.8.

[5] = Stability in a 10% aqueous solution at various temperatures; type: physicochemical; conditions: for remaining at 720 h / remaining at 1440 h / remaining at 2160 h: water, read-out: Titre % (HPLC)
Text: (§2) The following tables No.1, 2 and 3 respectively show the stability data of sodium etodolate in aqueous solutions at 10% and 20% at various temperatures and again at 10% after sterilization in autoclave in a closed container.

[6] = Stability in a 20% aqueous solution at various temperatures; type: physicochemical; conditions: for remaining at 720 h / remaining at 1440 h / remaining at 2160 h: water, read-out: Titre % (HPLC)
Text: as §2

[7] = Stability after sterilization at 120°C in autoclave for 20 min; type: physicochemical; conditions: 10% aqueous solution
Text: as §2

[8] = after sterilization at 120°C in autoclave for 20 min, closed container

Compound: CCc1cccc2c3c([nH]c12)C(CC)(CC(=O)O)OCC3 (centres unmarked) [potassium salt, reference compound]
- solubility [1]: 2%
- colour of the solutions [2]: deeply coloured
- stability of the solutions ([2]; quickened ageing tests): not much stable

Compound: CCc1cccc2c3c([nH]c12)C(CC)(CC(=O)O)OCC3 (centres unmarked) [etodolic acid, 1,8-diethyl-1,3,4,9-tetrahydropyran-[3,4-b] indol-1-acetic acid]
- water solubility (in words) [3]: water-insoluble

Compound: CCc1cccc2c3c([nH]c12)C(CC)(CC(=O)O)OCC3 (centres unmarked) [sodium salt of etodolic acid, Sodium salt of etodolic acid]
- water solubility (in words) [1]: easily soluble in water
- solubility [1]: exceed 20 % by weight
- solubility ([1]; water-soluble): > 200 mg/mL
- pH ([4]; 7.3% solution): 7.8
- pH ([4]; 20% solution): 8.7
- Colour ([5]; 5°C, 1 month): unchanged
- pH ([5]; 5°C, 1 month): 7.8
- Colour ([5]; 5°C, 2 month): unchanged
- pH ([5]; 5°C, 2 month): 7.8
- Colour ([5]; 5°C, 3 month): unchanged
- pH ([5]; 5°C, 3 month): 7.75
- Colour ([5]; 25°C, 1 month): unchanged
- pH ([5]; 25°C, 1 month): 7.8
- Colour ([5]; 25°C, 2 month): unchanged
- pH ([5]; 25°C, 2 month): 7.85
- Colour ([5]; 25°C, 3 month): unchanged
- pH ([5]; 25°C, 3 month): 7.8
- Colour ([5]; 45°C, 1 month): unchanged
- pH ([5]; 45°C, 1 month): 7.8
- Colour ([5]; 45°C, 2 month): unchanged
- pH ([5]; 45°C, 2 month): 7.8
- Colour ([5]; 45°C, 3 month): unchanged
- pH ([5]; 45°C, 3 month): 7.7
- Colour ([5]; at starting point): pale yellow
- Titre % (HPLC) ([5]; at starting point): 100%
- pH ([5]; at starting point): 7.8
- remaining at 720 h ([5]; 5°C, 1 month): 99%
- remaining at 1440 h ([5]; 5°C, 2 month): 100%
- remaining at 2160 h ([5]; 5°C, 3 month): 100%
- remaining at 720 h ([5]; 25°C, 1 month): 100%
- remaining at 1440 h ([5]; 25°C, 2 month): 100%
- remaining at 2160 h ([5]; 25°C, 3 month): 99%
- remaining at 720 h ([5]; 45°C, 1 month): 100%
- remaining at 1440 h ([5]; 45°C, 2 month): 99%
- remaining at 2160 h ([5]; 45°C, 3 month): 100%
- Colour ([6]; 5°C, 1 month): unchanged
- pH ([6]; 5°C, 1 month): 8.7
- Colour ([6]; 5°C, 2 month): unchanged
- pH ([6]; 5°C, 2 month): 8.7
- Colour ([6]; 5°C, 3 month): unchanged
- pH ([6]; 5°C, 3 month): 8.6
- Colour ([6]; 25°C, 1 month): unchanged
- pH ([6]; 25°C, 1 month): 8.7
- Colour ([6]; 25°C, 2 month): unchanged
- pH ([6]; 25°C, 2 month): 8.6
- Colour ([6]; 25°C, 3 month): unchanged
- pH ([6]; 25°C, 3 month): 8.7
- Colour ([6]; 45°C, 1 month): unchanged
- pH ([6]; 45°C, 1 month): 8.6
- Colour ([6]; 45°C, 2 month): deep yellow
- pH ([6]; 45°C, 2 month): 8.7
- Colour ([6]; 45°C, 3 month): deep yellow
- pH ([6]; 45°C, 3 month): 8.7
- Colour ([6]; at starting point): pale yellow
- Titre % (HPLC) ([6]; at starting point): 100%
- pH ([6]; at starting point): 8.7
- remaining at 720 h ([6]; 5°C, 1 month): 99%
- remaining at 1440 h ([6]; 5°C, 2 month): 100%
- remaining at 2160 h ([6]; 5°C, 3 month): 97%
- remaining at 720 h ([6]; 25°C, 1 month): 100%
- remaining at 1440 h ([6]; 25°C, 2 month): 99%
- remaining at 2160 h ([6]; 25°C, 3 month): 100%
- remaining at 720 h ([6]; 45°C, 1 month): 99%
- remaining at 1440 h ([6]; 45°C, 2 month): 98%
- remaining at 2160 h ([6]; 45°C, 3 month): 98%
- Appearance of the solution [7, 8]: limpid
- Colour of the solution [7, 8]: pale yellow
- pH [7, 8]: 7.8
- Appearance of the solution ([7]; at starting-point): limpid
- Colour of the solution ([7]; at starting-point): pale yellow
- Titre % (HPLC) ([7]; at starting-point): 100%
- pH ([7]; at starting-point): 7.8
- remaining at 20 min ([7]; water, after sterilization at 120°C in autoclave for 20 min, closed container, read-out: Titre (%) (HPLC)): 100%
- colour of the solutions [2]: only fleebly yellow-coloured
- stability of the solutions ([2]; during time): very stable during time
- stability ([2]; most different storage and treatment conditions (summary of Tables 1-3)): quite stable
